# Laboratory results: patent publication US11311513B2, “Methods, agents, and compositions for the treatment of acute myeloid leukemia” (UNIVERSITY OF CINCINNATI, priority 2017, dated 2022)
# System: TET1-high AML (including MONOMAC-6, THP-1, and KASUMI-1) cells
# Assay: MTS viability of AML cell lines versus JAK/STAT inhibitors
# Type: cell-based
# Conditions: MTS 48 hrs; up to 500 nM
# Procedure: FIG. 4. […] (a) Structures of NSC-370284 and UC-514321. […] Cells were treated with drugs at indicated doses. Cell viability was detected by MTS 48 hrs post-treatment. Error bar indicates SD of triplicate experiments. […] Secondary BMT recipient mice were transplanted with primary leukemic BM cells with MLL-AF9 (f) or AML-ETO9a (g). […] Kaplan-Meier curves are shown. The P values were determined by log-rank test. […] Secondary BMT recipient mice were transplanted with primary leukemic BM cells with MLL-AF10 or FLT3-ITD/NPM1^mut. […] Kaplan-Meier curves are shown. The P values were determined by log-rank test. (j) Wright-Giemsa staining of mouse PB and BM, or H&E staining of mouse spleen and liver of MLL-AF9 AML secondary BMT recipients with or without drug treatment.
# These experiments were conducted as described previously (Jiang, X., et al., Blockade of miR-150 Maturation by MLL-Fusion/MYC/LIN-28 Is Required for MLL-Associated Leukemia, Cancer Cell 22:524-35 (2012); Li, Z., et al., miR-196b directly targets both HOXA9/MEIS1 oncogenes and FAS tumour suppressor in MLL-rearranged leukaemia, Nat Commun 2:688 (2012)) with ApoLive-Glo Multiplex Assay Kit, or CellTiter 96 AQueous Non-Radioactive Cell Proliferation Assay Kit (Promega, Madison, Wis.).
compound,measurement,value
"CC(C)(C)c1cc(C(c2cc3c(cc2O)OCO3)N2CCOCC2)cc(C(C)(C)C)c1O (stereo not shown) [UC-514321, 6-{[4-Hydroxy-3,5-bis(2-methyl-2-propanyl)phenyl](4-morpholinyl)methyl}-1,3-benzodioxol-5-ol]",effect in repressing viability of TET1-high AML cells compared with NSC-370284 and other JAK/STAT inhibitors,enhanced effect
